Values after ≈ are worked out from the molar mass of the structure shown. Like-named read-outs stand apart in the source and are kept apart here.
How the values were obtained:
S. aureus = test: Minimum inhibitory concentration, broth microdilution (CLSI); assay type: cell-based, Staphylococcus aureus
Experimental: (§1) The antimicrobial activity of the compounds was evaluated by a broth microdilution assay using the procedure described by CLSI. Briefly, bacteria were grown to mid-log phase in Muller Hinton broth (MHB) with shaking at 120 rpm and incubated at 37 °C for 12–16 h. Following incubation, bacteria were washed three times in PBS pH 7.4 at 3500 g for 10 min. After washing, bacteria were diluted with fresh MHB. The turbidity of the bacterial suspensions was adjusted so that OD660nm was 0.1, which gave 1 × 10^8 CFU/mL, and then further diluted to achieve 5 × 10^5 CFU/mL as a final bacterial concentration. Each compound was diluted (250–3.9 µM) through two-fold dilution. Wells in microtiter plates were loaded with 100 µL of inoculum containing 5 × 10^5 CFU/mL bacteria. Wells without any compound and containing only bacteria were used as negative controls (i.e., no inhibition of growth). Wells with media only were set as blank. The microtiter plate was wrapped with paraffin to prevent evaporation and incubated with shaking at 120 rpm and 37 °C for 18–24 h. After incubation, spectrophotometric readings were taken. The well without any bacterial growth and showing zero spectrophotometric reading was regarded as the MIC of the compounds.

E. coli = test: as above; assay type: cell-based, Escherichia coli
Experimental: as §1

MRC-5 human fibroblasts = test: Toxicity assay, Alamar Blue; assay type: cell-based; settings: for IC50: MRC5, MRC-5 human fibroblasts, 72 h drug incubation, Alamar Blue
Experimental: Normal human lung fibroblasts MRC-5 were cultured in minimal essential medium (MEM, Invitrogen) supplemented with 10% foetal calf serum (FCS), 1% L-glutamine–penicillin–streptomycin, 2% sodium bicarbonate, 1% non-essential amino acids (NEAA), and 1% sodium pyruvate. The cell line was maintained at 37 °C in 5% CO2 as an adherent monolayer and was passaged upon reaching confluence by standard cell culture techniques. MRC-5 cells were seeded at 2 × 10^4 cells per well in 96-well plates to ensure full confluence (quiescence). Cells were treated for 24 h after seeding with 0.1 to 1000 μM of compounds. After 72 h of drug incubation, the treated media was replaced with fresh media containing 10% Alamar Blue and the cells were incubated for another 6 h. The metabolic activity was detected by spectrophotometric analysis by assessing the absorbance of Alamar blue as previously described by Pasquier et al. Cell proliferation was determined and expressed as a percentage of untreated control cells. The determination of IC50 values was performed using GraphPad Prism 6 (San Diego, CA, USA). Each experiment was performed in triplicate and was repeated in three independent experiments.

[1] = Staphylococcus aureus, broth microdilution in MHB, 18–24 h
[2] = Escherichia coli, broth microdilution in MHB, 18–24 h
[3] = Staphylococcus aureus, Table 2, lysine derivative versus parent, read-out: MIC S. aureus
[4] = Escherichia coli, Table 2, lysine derivative versus parent, read-out: MIC E. coli
[5] = broth microdilution in MHB, 18–24 h

| Compound | MIC90 (S. aureus; [1]) | MIC90 (E. coli; [2]) | IC50 (MRC-5 human fibroblasts) | also measured |
| --- | --- | --- | --- | --- |
| NCCNC(=O)[C@H](Cc1c[nH]c2ccccc12)NC(=O)c1cc(Br)ccc1NC(=O)c1ccccc1-c1ccccc1 [Compound 12i, (S)-N-(2-((1-((2-aminoethyl)amino)-3-(1H-indol-3-yl)-1-oxopropan-2-yl)carbamoyl)-4-bromophenyl)-[1,1′-biphenyl]-2-carboxamide] | 15.6 µM (≈ 9.74 µg/mL) | > 125 µM | 22.9 µM |  |
| NCCCNC(=O)[C@H](Cc1c[nH]c2ccccc12)NC(=O)c1cc(Br)ccc1NC(=O)c1ccc2ccccc2c1 [Compound 13a, (S)-N-(2-((1-((3-aminopropyl)amino)-3-(1H-indol-3-yl)-1-oxopropan-2-yl)carbamoyl)-4-bromophenyl)-2-naphthamide] | 15.6 µM (≈ 9.56 µg/mL) | > 125 µM |  |  |
| COc1ccc2ccccc2c1C(=O)Nc1ccc(Br)cc1C(=O)N[C@@H](Cc1c[nH]c2ccccc12)C(=O)NCCN [Compound 12c, (S)-N-(2-((1-((2-aminoethyl)amino)-3-(1H-indol-3-yl)-1-oxopropan-2-yl)carbamoyl)-4-bromophenyl)-2-methoxy-1-naphthamide] | 15.6 µM (≈ 9.81 µg/mL) | > 125 µM |  |  |
| COc1cc2ccccc2cc1C(=O)Nc1ccc(Br)cc1C(=O)N[C@@H](Cc1c[nH]c2ccccc12)C(=O)NCCN [Compound 12d, (S)-N-(2-((1-((2-aminoethyl)amino)-3-(1H-indol-3-yl)-1-oxopropan-2-yl)carbamoyl)-4-bromophenyl)-3-methoxy-2-naphthamide] | 7.8 µM (≈ 4.9 µg/mL) | > 125 µM | 18.7 µM |  |
| NCCNC(=O)[C@H](Cc1c[nH]c2ccccc12)NC(=O)c1cc(Br)ccc1NC(=O)c1ccc(-c2ccccc2)cc1 [Compound 12k, (S)-N-(2-((1-((2-aminoethyl)amino)-3-(1H-indol-3-yl)-1-oxopropan-2-yl)carbamoyl)-4-bromophenyl)-[1,1′-biphenyl]-4-carboxamide] | 7.8 µM (≈ 4.87 µg/mL) | > 125 µM | 12.7 µM | MIC (S. aureus; [3]): 7.8 µM (≈ 4.87 µg/mL); MIC (E. coli; [4]): > 125 µM |
| NCCNC(=O)[C@H](Cc1c[nH]c2ccccc12)NC(=O)c1cc(Br)ccc1NC(=O)c1ccc2ccccc2n1 [Compound 12e, (S)-N-(2-((1-((2-aminoethyl)amino)-3-(1H-indol-3-yl)-1-oxopropan-2-yl)carbamoyl)-4-bromophenyl)quinoline-2-carboxamide] | 15.6 µM (≈ 9.35 µg/mL) | > 125 µM |  |  |
| NCCNC(=O)[C@H](Cc1c[nH]c2ccccc12)NC(=O)c1cc(-c2ccc(C(F)(F)F)cc2)ccc1N [Compound 16d, (S)-4-amino-N-(1-((2-aminoethyl)amino)-3-(1H-indol-3-yl)-1-oxopropan-2-yl)-4′-(trifluoromethyl)-[1,1′-biphenyl]-3-carboxamide] | 15.6 µM (≈ 7.95 µg/mL) | > 125 µM |  |  |
| NCCNC(=O)[C@H](Cc1c[nH]c2ccccc12)NC(=O)c1cc(Br)ccc1NC(=O)c1cc2ccccc2[nH]1 [Compound 12f, (S)-N-(2-((1-((2-aminoethyl)amino)-3-(1H-indol-3-yl)-1-oxopropan-2-yl)carbamoyl)-4-bromophenyl)-1H-indole-2-carboxamide] | 125 µM (≈ 73.4 µg/mL) | > 125 µM |  |  |
| Colistin [reference compound] |  |  |  | MIC90 (S. aureus; [5]): 125 µM; MIC90 (E. coli; [5]): 1 µM |
| NCCNC(=O)[C@H](Cc1c[nH]c2ccccc12)NC(=O)c1cc(Br)ccc1N [Compound 17, (S)-2-amino-N-(1-((2-aminoethyl)amino)-3-(1H-indol-3-yl)-1-oxopropan-2-yl)-5-bromobenzamide] | > 125 µM | > 125 µM |  |  |
| CC(C)(C)c1ccc(-c2ccc(N)c(C(=O)N[C@@H](Cc3c[nH]c4ccccc34)C(=O)NCCN)c2)cc1 [Compound 16a, (S)-4-amino-N-(1-((2-aminoethyl)amino)-3-(1H-indol-3-yl)-1-oxopropan-2-yl)-4′-(tert-butyl)-[1,1′-biphenyl]-3-carboxamide] | 7.8 µM (≈ 3.88 µg/mL) | > 125 µM | 34.1 µM |  |
| NCCNC(=O)[C@H](Cc1c[nH]c2ccccc12)NC(=O)c1cc(-c2ccc(F)cc2)ccc1N [Compound 16c, (S)-4-amino-N-(1-((2-aminoethyl)amino)-3-(1H-indol-3-yl)-1-oxopropan-2-yl)-4′-fluoro-[1,1′-biphenyl]-3-carboxamide] | 31.2 µM (≈ 14.3 µg/mL) | > 125 µM | 34 µM |  |
| NCCCC[C@H](N)C(=O)NCCNC(=O)[C@H](Cc1c[nH]c2ccccc12)NC(=O)c1cc(Br)ccc1NC(=O)c1ccc(-c2ccccc2)cc1 [Compound 19c, N-(4-bromo-2-(((S)-1-((2-((S)-2,6-diaminohexanamido)ethyl)amino)-3-(1H-indol-3-yl)-1-oxopropan-2-yl)carbamoyl)phenyl)-[1,1′-biphenyl]-4-carboxamide] | 15.6 µM (≈ 11.7 µg/mL) | 62.5 µM (≈ 47 µg/mL) | 150 µM | MIC (S. aureus; [3]): 15.6 µM (≈ 11.7 µg/mL); MIC (E. coli; [4]): 62.5 µM (≈ 47 µg/mL); MIC (E. coli; Escherichia coli, broth microdilution in MHB, 18–24 h, read-out: MIC90 E. coli): 15.6 µM (≈ 11.7 µg/mL); improvement in antibacterial activity against E. coli compared to the parent compound (E. coli; versus parent 12a, 12j): > 16 fold; toxicity to mammalian cells (in words) (MRC-5 human fibroblasts; at 31.2 µM): non-toxic |
| NCCNC(=O)[C@H](Cc1c[nH]c2ccccc12)NC(=O)c1cc(Br)ccc1NC(=O)Cc1cccc2ccccc12 [Compound 12b, (S)-N-(1-((2-aminoethyl)amino)-3-(1H-indol-3-yl)-1-oxopropan-2-yl)-5-bromo-2-(2-(naphthalen-1-yl)acetamido)benzamide] | 62.5 µM (≈ 38.3 µg/mL) | > 125 µM |  | MIC (S. aureus; Staphylococcus aureus, broth microdilution in MHB, 18–24 h, read-out: MIC90 S. aureus): 15.6 µM (≈ 9.56 µg/mL) |
| NCCCNC(=O)[C@H](Cc1c[nH]c2ccccc12)NC(=O)c1cc(Br)ccc1NC(=O)c1ccc2ccccc2n1 [Compound 13e, (S)-N-(2-((1-((3-aminopropyl)amino)-3-(1H-indol-3-yl)-1-oxopropan-2-yl)carbamoyl)-4-bromophenyl)quinoline-2-carboxamide] | > 125 µM | > 125 µM |  |  |
| NCCNC(=O)[C@H](Cc1c[nH]c2ccccc12)NC(=O)c1cc(Br)ccc1NC(=O)c1cccs1 [Compound 12g, (S)-N-(2-((1-((2-aminoethyl)amino)-3-(1H-indol-3-yl)-1-oxopropan-2-yl)carbamoyl)-4-bromophenyl)thiophene-2-carboxamide] | 125 µM (≈ 69.3 µg/mL) | > 125 µM |  |  |
| NCCNC(=O)[C@H](Cc1c[nH]c2ccccc12)NC(=O)c1cc(Br)ccc1NC(=O)c1ccsc1 [Compound 12h, (S)-N-(2-((1-((2-aminoethyl)amino)-3-(1H-indol-3-yl)-1-oxopropan-2-yl)carbamoyl)-4-bromophenyl)thiophene-3-carboxamide] | 125 µM (≈ 69.3 µg/mL) | > 125 µM |  |  |
| COc1ccc2ccccc2c1C(=O)Nc1ccc(Br)cc1C(=O)N[C@@H](Cc1c[nH]c2ccccc12)C(=O)NCCCN [Compound 13c, (S)-N-(2-((1-((3-aminopropyl)amino)-3-(1H-indol-3-yl)-1-oxopropan-2-yl)carbamoyl)-4-bromophenyl)-2-methoxy-1-naphthamide] | 15.6 µM (≈ 10 µg/mL) | 62.5 µM (≈ 40.2 µg/mL) | 20.5 µM |  |
| NCCCNC(=O)[C@H](Cc1c[nH]c2ccccc12)NC(=O)c1cc(Br)ccc1NC(=O)Cc1cccc2ccccc12 [Compound 13b, (S)-N-(1-((3-aminopropyl)amino)-3-(1H-indol-3-yl)-1-oxopropan-2-yl)-5-bromo-2-(2-(naphthalen-1-yl)acetamido)benzamide] | 62.5 µM (≈ 39.2 µg/mL) | > 125 µM |  |  |
| NCCNC(=O)[C@H](Cc1c[nH]c2ccccc12)NC(=O)c1cc(Br)ccc1NC(=O)c1cccc(-c2ccccc2)c1 [Compound 12j, (S)-N-(2-((1-((2-aminoethyl)amino)-3-(1H-indol-3-yl)-1-oxopropan-2-yl)carbamoyl)-4-bromophenyl)-[1,1′-biphenyl]-3-carboxamide] | 3.9 µM (≈ 2.44 µg/mL) | > 125 µM | 13.5 µM | MIC (S. aureus; [3]): 3.9 µM (≈ 2.44 µg/mL); MIC (E. coli; [4]): > 125 µM; MIC90 (E. coli; [5]): >125 µM |

— paper PMC10044445, “Tuning the Anthranilamide Peptidomimetic Design to Selectively Target Planktonic Bacteria and Biofilm” (Antibiotics, 2023)
